# Data from PubChem BioAssay (NCI).
# Values joined by “and” are separate entries in the source; they are usually repeats but may differ in a detail not shown here. Equal entries are not always repeated.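 Five concentrations, 48 hours, 96-well plates. GI50 = concentration required for 50% inhibition of growth. The concentration for full growth arrest is given as TGI.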
# Columns and labels:
# Test in all cases: growth of human tumour cells (NCI), 48 h
# [1] = tested on: M19-MEL melanoma
# [2] = tested on: DLD-1 colon
# [3] = tested on: HOP-18 NSCLC
# [4] = tested on: KM20L2 colon
# [5] = tested on: XF 498 CNS
# [6] = tested on: RXF-631 renal
# [7] = tested on: DMS 273 small cell lung
# [8] = tested on: DMS 114 small cell lung
# [9] = tested on: MDA-N
# [10] = tested on: SN12K1 renal
Compound,TGI [1],TGI [2],TGI [3],TGI [4],TGI [5],TGI [6],TGI [7],TGI [8],TGI [9],also measured
O=C1CSc2cc([N+](=O)[O-])ccc2N1,> 100 µM,> 100 µM,> 100 µM,> 100 µM,> 100 µM,> 100 µM,> 100 µM,> 100 µM,,
CCN(CC)CC(=N)N(CC)c1ccccc1,> 100 µM,> 100 µM,> 100 µM,> 100 µM,> 100 µM,,,> 100 µM,,
O=C(O)/C(=C\c1ccncc1)c1cccc2ccccc12,,,,,,,,,> 100 µM,
C/C(=N\NC(=S)N(C)C)c1ccccn1,,,,,,,,,,GI50 [9]: 0.178 µM
N.N.O=P([O-])([O-])C1(P(=O)([O-])[O-])CCCCCN1.[Pt+2],,> 100 µM,> 100 µM,> 100 µM,,,> 100 µM,,,GI50 [2]: > 100 µM; GI50 [3]: > 100 µM; GI50 [4]: > 100 µM; GI50 [7]: > 100 µM
CCN(CC)C(=S)[S][Bi]([S]C(=S)N(CC)CC)[S]C(=S)N(CC)CC,0.314 µM,0.208 µM,0.375 µM,1.23 µM,,,0.221 µM,0.0444 µM,2.04 µM,GI50 [9]: 0.728 µM; GI50 [1]: 0.162 µM; GI50 [2]: 0.0404 µM; GI50 [3]: 0.202 µM; GI50 [4]: 0.128 µM; GI50 [7]: 0.056 µM; GI50 [8]: 0.0193 µM
CCCCCCCCCCCCCCCCCC(=O)Nc1ccn(C2OC(CO)C(O)C2O)c(=O)n1 (stereo not drawn),> 100 µM,> 100 µM,> 100 µM,> 100 µM,,,> 100 µM,,> 100 µM,
Cn1c(=O)c2/c(n(C)c1=O)=N\C=c1\c(=O)n(C)c(=O)n(C)\c1=N\C=2,> 100 µM,> 100 µM,> 100 µM,> 100 µM,,> 100 µM,,> 100 µM,,
Cc1ccc(C(=O)CC2=Nc3nnc(CCCCCCCc4nnc5n4C(=O)C(CC(=O)c4ccc(C)cc4)=N5)n3C2=O)cc1,> 100 µM,> 100 µM,> 100 µM,> 100 µM,> 100 µM,> 100 µM,,> 100 µM,,
O=C(NC(=O)c1ccccc1[N+](=O)[O-])Nc1ccc(Oc2ncc(Cl)cn2)c(C(F)(F)F)c1,> 100 µM,> 100 µM,> 100 µM,< 0.0231 µM,1.62 µM,,0.669 µM,,,
O=C(/C=C\c1cccc2ccccc12)c1cccc2ccccc12,33.6 µM,15.8 µM,,15 µM,,26.4 µM,24.7 µM,,,GI50 [2]: 3.43 µM; GI50 [4]: 3.96 µM; GI50 [6]: 10.5 µM; GI50 [7]: 4.03 µM
CC(=O)[CH-]C(=O)c1ccccc1.CC(=O)[CH-]C(=O)c1ccccc1.CC[O-].O=C1c2ccccc2C(=O)c2c1ccc(O)c2[O-].[Ti+4],80.2 µM,> 100 µM,88.3 µM,> 100 µM,,,> 100 µM,,,GI50 [3]: 23.1 µM; GI50 [4]: 80.5 µM
O=NN(CCCl)C(=O)NC1CCC(CC2CCC(NC(=O)N(CCCl)N=O)CC2)CC1 (stereo not drawn),> 100 µM,> 62.4 µM,> 56.2 µM,> 100 µM,19.8 µM,> 100 µM,85.5 µM,> 55.1 µM,,TGI [10]: 34.2 µM
O=[N+]([O-])c1cccc2nccc(NCCCO)c12,,,,,,,,,22.2 µM,
O=S1Nc2c(Cl)cc(Cl)c(Cl)c2S1 (stereo not drawn),> 100 µM,> 100 µM,> 100 µM,> 100 µM,,,> 100 µM,> 100 µM,,
OCCN1CCN(CC/C=C2/c3ccccc3Sc3ccc(Cl)cc32)CC1,4.09 µM,26.4 µM,24 µM,5.4 µM,25.4 µM,,18.9 µM,30.5 µM,,
O=C(O)Cn1cc([N+](=O)[O-])c(=O)c2ccccc21,,,,,,,,,> 100 µM,
Cc1coc2c1C(OC(=O)C(C)C)C1(C)C(C)CCC(O)C1C2=O (stereo not drawn),,,,,,,,,> 100 µM,
Cc1cccc2c(O)cc(=O)oc12,> 100 µM,> 100 µM,> 100 µM,> 100 µM,> 100 µM,,,> 100 µM,,
CCC[CH2][Sn]1([CH2]CCC)[O]CC(C)[O]1 (stereo not drawn),2.23 µM,3.32 µM,,6.86 µM,2.33 µM,,2.66 µM,2.49 µM,,GI50 [1]: 0.803 µM; GI50 [2]: 1.47 µM; GI50 [4]: 2.53 µM; GI50 [5]: 0.99 µM; GI50 [7]: 1.26 µM; GI50 [8]: 1.11 µM

Compound,TGI [1],TGI [2],TGI [3],TGI [4],TGI [5],TGI [6],TGI [7],TGI [8],TGI [9],also measured
CC(=O)[CH-]C(C)=O.CC(=O)[CH-]C(C)=O.CC[O-].CC[O-].[Ti+4],,> 100 µM,,,,,,> 100 µM,,GI50 [2]: > 100 µM; GI50 [8]: > 100 µM
CN(C)CC/C(=N\Nc1ccc(Cl)cc1Cl)c1ccccc1,31.5 µM,23.8 µM,28.7 µM,27.5 µM,,,27 µM,27.6 µM,,
CNCCN=c1ccc2c3c1c(O)c1c(O)ccc(=O)c1c3[nH]n2CCNCCO,2.72 µM and 1.13 µM,11.6 µM and 11.9 µM and 19.6 µM,2.18 µM and 7.73 µM and 6.04 µM,6.7 µM and 12.2 µM and 1.51 µM,,,1.59 µM and 0.336 µM,2.91 µM and 0.834 µM,2.7 µM,GI50 [1]: 0.147 µM and 0.179 µM; GI50 [10]: 0.05 µM; TGI [10]: 2.54 µM and 0.598 µM; GI50 [7]: 0.053 µM and 0.0978 µM
C/C=N\N1C(=O)c2ccccc2C1=O,> 100 µM,> 100 µM,> 100 µM,> 100 µM,> 100 µM,> 100 µM,> 100 µM,> 100 µM,,
C[C@]12CCC(=O)C=C1CC[C@@H]1C2CC[C@]2(C)c3nn(-c4ccccc4)nc3CC12 (stereo partly drawn),> 100 µM,> 100 µM,,> 100 µM,> 100 µM,,> 100 µM,> 100 µM,,
O=C(O)C(Oc1nc(=S)[nH]c(=S)[nH]1)(c1ccc(Cl)cc1)c1ccc(Cl)cc1,,,,,,,,,> 100 µM,
CC1(C)CC(N(C(=O)/C=C/c2ccc([N+](=O)[O-])o2)C2CCCCC2)CC(C)(C)N1,16.9 µM,3.38 µM,37.4 µM,18.8 µM,23.5 µM,23.4 µM,18 µM,6.87 µM,,
CCN(CC)CCNC(=O)c1cccc2nc3ccccc3nc12,,> 100 µM,> 63.4 µM,67.8 µM,,,> 100 µM,22.3 µM,,
CN1C/C(=C\C=C\c2ccccc2)C(=O)/C(=C/C=C/c2ccccc2)C1,> 100 µM,> 100 µM,,> 100 µM,> 100 µM,> 100 µM,> 100 µM,> 100 µM,,
CC(=C/c1ccccc1)/C=C1/NC(=S)N(/C=C2\C(=O)Oc3ccccc3C2=O)C1=O,,,,,,,,,> 100 µM,
O=C1/C(=C/c2ccc(Br)cc2)CCC/C1=C\c1ccc(Br)cc1,32.9 µM,31.6 µM,78.6 µM,> 100 µM,52 µM,18.1 µM,15.7 µM,38.7 µM,,
C=CC1=C(C)C2=NC1=CC1=NC(=C(CC)/C1=C\O)C=C1N=C3C(=C1C)C(=O)[C@H](C(=O)OC)C3=C1NC(=C2)[C@@H](C)[C@@H]1CCC(=O)O,,,,,,,,,> 100 µM,
CC(C)=CCCC(C)C1=C(O)C(=O)C(C)=CC1=O (stereo not drawn),,,,,,,,,21.7 µM,
O=[N+]([O-])c1ccc(C=NC23CC4CC(CC(C4)C2)C3)cc1,> 100 µM,> 100 µM,> 100 µM,> 100 µM,> 100 µM,> 100 µM,> 100 µM,> 100 µM,,
O=C(O)c1cc2ccccc2c2c1C(=O)c1ccccc1-2,,,,,,,,,> 100 µM,
NNC(=O)C(=O)N/N=C(\CCC(=O)Nc1ccc(Cl)cc1)Cc1nc2ccccc2s1,36.9 µM,,38.7 µM,> 100 µM,,,67.8 µM,54.8 µM,,
CN(C)C(=O)Oc1c(-c2ccccc2)c(=O)n2c3ccccc3n3c(=O)n(C)c(=O)c1c23,> 100 µM,> 100 µM,> 100 µM,,> 100 µM,> 100 µM,> 100 µM,> 100 µM,,
O=C(CCC(=O)C1CCC/C1=N/O)Nc1ccc(Cl)cc1 (stereo not drawn),> 100 µM,> 100 µM,> 100 µM,> 100 µM,> 100 µM,> 100 µM,> 100 µM,,,
O=C1c2ccccc2C(=O)c2[nH]c(Cc3ccc(F)cc3)nc21,34.2 µM,8.21 µM,,34.4 µM,31.8 µM,44.8 µM,35.5 µM,,,
